# Source: patent publication US20260201420A1, “HOMOLOGY-INDEPENDENT TARGETED DNA INSERTION IN HUMAN T CELLS” (The Board of Trustees of The Leland Stanford Junior …, priority 2022, published 2026)
# Key:
# primary human T cells [1] = experiment: HDR inhibitor (AZD0156) modulation of GD2-CAR integration via HITI and HDR; type: cell-based
# Protocol: (§1) Fresh Leukopaks were obtained from STEMCELL Technologies and processed for negative selection using the EasySep Human T Cell Isolation Kit. Cells were activated using Dynabeads Human T-Activator CD3/CD28 (Thermo Fisher) at a 1:1 ratio and cultivated in TexMACS media supplemented with human IL-7 at 12.5 ng/ml and IL-15 at 12.5 ng/ml (all Miltenyi Biotec) as well as 3% human male AB Serum (Access Cell Culture). The culture volume was expanded over time to maintain cells at a concentration of ^~1.5×10^6/ml using G-Rex 24-well and 6-well plates or G-Rex 100M according to manufacturer's instructions (Wilson-Wolf). Small molecule inhibitors AZD0156 (Selleck Chemicals) and Methotrexate (Sigma Aldrich) were resuspended in DMSO and added to the cell culture media as indicated.
# On day 2, unless otherwise indicated, Dynabeads were magnetically removed and cells were counted prior to electroporation on the Maxcyte GTx. For electroporation cells were washed once in Electroporation Buffer (Maxcyte) and then resuspended at 2×10^8/ml for small scale experiments or in 2.4 ml for large-scale electroporation. Wildtype Cas9 (61 μM, IDT) and sgRNA (125 μM, IDT) were mixed vol 1:1 resulting in a molar ratio of 2:1 and incubated for 10 min. at room temperature. Hereafter indicated amounts of plasmid DNA (3 mg/ml) were added to the RNP and incubated for at least 10 min. to allow the RNP to cut the plasmid DNA. For small-scale experiments 5×10^6 T cells were resuspended in 25 μl and 1.25 μl of RNP and respective amounts of plasmid DNA were added. Cells were then transferred into OC-25×3 processing assemblies and electroporated using the Expanded T cell 4 protocol for activated T cells or the Resting T cell 14-3 protocol for electroporation of non-activated T cells, which were stimulated after electroporation with Dynabeads at a 1:1 ratio. Small scale experiments for GPC2 CAR knock-in were conducted using the OC100×2 processing assembly with a final reaction volume of 100 μl. For large scale experiments the GMP compatible CL1.1 assembly was used. […]
# primary human T cells [2] = experiment: Titration of MTX in primary human T cells; type: cell-based
# Protocol: as §1
# To enable enrichment of the desired CAR+ knock-in population we optimized CEMENT based selection by comparing three different clinically relevant enrichment markers: Dihydrofolate Reductase^L22F/F31S (DHFR-FS), truncated Epidermal Growth Factor Receptor (tEGFR), and truncated Nerve Growth Factor Receptor (tNGFR)^9,17,33. All three enrichment markers were successfully co-inserted along with the GD2-CAR resulting in total transgene sizes of ^~2.5-3 kb. CRISPR knock-in CAR-T cells were either enriched using the FDA approved drug MTX which was diluted from a 10 mM stock in media to result in a 50 nM final concentration. […]
# primary human T cells [3] = experiment: HITI/CEMENT knock-in CAR-T cell manufacturing at clinical scale; type: cell-based; details: end of MTX treatment (day 7), 50 nM
# Protocol: as §1
# On day 2, unless otherwise indicated, Dynabeads were magnetically removed and cells were counted prior to electroporation on the Maxcyte GTx. For electroporation cells were washed once in Electroporation Buffer (Maxcyte) and then resuspended at 2×10^8/ml for small scale experiments or in 2.4 ml for large-scale electroporation. […]
# Cell counts and Viability were obtained using the Nexcelom Cellometer Auto 2000. Samples were mixed with AO/PI dye at a 1:1 volume ratio and then analyzed using the setting Immune Cells—Low RBC. […]
# primary human T cells [4] = experiment: CRISPR knock-in of GD2-CAR into TRAC in activated T cells (HDR vs HITI plasmid templates), flow cytometry and cell counts; type: cell-based; details: for knock-in frequencies (mean frequencies): GD2-CAR into TRAC, activated T cells electroporated day 2, flow cytometry day 10, n=4 donors
# Protocol: as §1
# Plasmid DNA was optimized for gene therapeutic application and consisted of two components: R6K origin of replication and an anti-Levansucrase antisense RNA to allow for an antibiotic-free selection. This ^~430 bp backbone prevents transgene silencing after genomic insertion^40,43,44. Knock-In templates were synthesized at Genscript and flanking cut sites for NheI and KpnI were used to clone synthetic genes into plasmid backbones. To introduce RNP cut sites within the plasmid DNA, the genomic target of the respective RNP was included into the above mentioned synthetic gene.
# (§2) On day 2, unless otherwise indicated, Dynabeads were magnetically removed and cells were counted prior to electroporation on the Maxcyte GTx. For electroporation cells were washed once in Electroporation Buffer (Maxcyte) and then resuspended at 2×10^8/ml for small scale experiments or in 2.4 ml for large-scale electroporation. Wildtype Cas9 (61 μM, IDT) and sgRNA (125 μM, IDT) were mixed vol 1:1 resulting in a molar ratio of 2:1 and incubated for 10 min. at room temperature. Hereafter indicated amounts of plasmid DNA (3 mg/ml) were added to the RNP and incubated for at least 10 min. to allow the RNP to cut the plasmid DNA. For small-scale experiments 5×10^6 T cells were resuspended in 25 μl and 1.25 μl of RNP and respective amounts of plasmid DNA were added. Cells were then transferred into OC-25×3 processing assemblies and electroporated using the Expanded T cell 4 protocol for activated T cells or the Resting T cell 14-3 protocol for electroporation of non-activated T cells, which were stimulated after electroporation with Dynabeads at a 1:1 ratio. Small scale experiments for GPC2 CAR knock-in were conducted using the OC100×2 processing assembly with a final reaction volume of 100 μl. For large scale experiments the GMP compatible CL1.1 assembly was used. Post electroporation cells were rested in electroporation buffer either in the processing assembly (OC-25×3, OC-100×2) or in G-Rex 6-well plates (CL1.1) for 30 min. before being transferred into final G-Rex vessels.
# (§3) Cell counts and Viability were obtained using the Nexcelom Cellometer Auto 2000. Samples were mixed with AO/PI dye at a 1:1 volume ratio and then analyzed using the setting Immune Cells—Low RBC.
# For GD2-CAR and GPC2-CAR detection, an anti-14g2a idiotype or recombinant human Glypican-2 protein (R&D systems) were fluorescently labeled with the DyLight 650 Microscale Antibody Labeling kit (Thermo Fisher). For intracellular staining CAR+ T cells were co-cultured with respective tumor cell lines at a 1:4 ratio. Prior to co-cultivation the protein transport inhibitor Monensin (BD) and the anti-CD107a antibody (Biolegend) were added to T cell samples. […]
# TRAC = experiment: IN&OUT PCR and Sanger sequencing of knock-in junctions; set-up: species or system human; details: IN&OUT PCR, Sanger sequencing
# Protocol: Genomic DNA was extracted using the PureLink Genomic DNA Mini Kit (Invitrogen). Primers flanking the insertion sites of HITI1c and binding outside the respective homology arm sequence of HDR2c as well as primers binding within the inserted sequences were designed using Primer3Plus (www.primer3plus.com). Phusion Hot Start Flex 2× Mastermix (NEB) was used to amplify genomic regions of interest and DNA gel electrophoresis was conducted using the E-Gel Power Snap System (Thermo Scientific). Samples were shipped to ELIM BIOPHARM for Sanger sequencing. Sequences were aligned for analysis using snapgene.
# non-activated T cells = experiment: CRISPR knock-in of GD2-CAR in non-activated T cells; type: cell-based, human; details: HITI1c vs HDR2c, day 10
# Protocol: as §2, §3
# For GD2-CAR and GPC2-CAR detection, an anti-14g2a idiotype or recombinant human Glypican-2 protein (R&D systems) were fluorescently labeled with the DyLight 650 Microscale Antibody Labeling kit (Thermo Fisher). For intracellular staining CAR+ T cells were co-cultured with respective tumor cell lines at a 1:4 ratio. […]
compound,measurement,setting,value
CN(C)CCCOc1ccc(-c2ccc3ncc4c(c3c2)n(C2CCOCC2)c(=O)n4C)cn1 [AZD0156],knock-in efficiency of HDR2c when AZD0156 was added,"primary human T cells [1]; HDR2c template, 18 hours treatment post electroporation, vs untreated",decreased knock-in efficiency
same,insertion rates for HITI1c when AZD0156 was added,"primary human T cells [1]; HITI1c template, 18 hours treatment post electroporation, vs untreated",higher insertion rates
same,GD2-CAR T cell yields in HITI1c samples after AZD0156 treatment,primary human T cells [1]; compared to untreated controls,decreased GD2-CAR T cell yields
"CN(Cc1cnc2nc(N)nc(N)c2n1)c1ccc(C(=O)N[C@@H](CCC(=O)O)C(=O)O)cc1 [MTX, methotrexate]",concentration from which efficient killing occurs,"primary human T cells [2]; n=2 donors, technical duplicates",≥ 50 nM
same,concentration at which MTX exerts cytostatic effects in dividing T cells,primary human T cells [2]; primary human T cells post activation,50 nM
same,effects of MTX on viability of edited vs. non-edited T cells,primary human T cells [3],only non-edited cells were compromised in their viability
"HITI1c: Knock-In template plasmid, one cut site: cut_site-EFS-Signalpeptide-14g2a-CD8TM-4-1BB-CD3z-STOP-bGH_ployA (SEQ ID NO: 3)",knock-in frequencies (mean frequencies),primary human T cells [4],15.7%
same,"GD2-CAR T cell yields, HITI vs HDR","primary human T cells [4]; HITI1c vs HDR2c, day 10, average",~ 3 fold
same,"GD2-CAR T cell yield, one cut site vs two cut sites","primary human T cells [4]; HITI1c vs HITI2c, day 10",~ 6 fold
same,"insertion rates, HITI1c vs HDR2c","primary human T cells [4]; activated T cells, day 10",comparable
same,Indels at both junctions of integrated plasmid construct,TRAC,6 bp
same,CAR+ T cell yield in non-activated T cells,non-activated T cells,higher
same,insertion rates in non-activated T cells,non-activated T cells,higher
same,viability in non-activated T cells,non-activated T cells,higher
"HITI2c: Knock-In template plasmid, two cut sites: cut_site-EFS-Signalpeptide-14g2a-CD8TM-4-1BB-CD3z-STOP-bGH_ployA-cut_site (SEQ ID NO: 4)",knock-in frequencies (mean frequencies),primary human T cells [4],9.3%
